In patent US9751861B2, “N1-(3,3,3-trifluoro-2-hydroxo-2-methylpropionyl)-piperidine derivatives as inhibitors of pyruvate dehydrogenase kinase” (MERCK PATENT GMBH, priority 2013, dated 2017):

Experiments:
[1] = molecular target: T1, human PDHK2 (12-407) (Homo sapiens, UniProt Q15119); assay: Isothermal titration calorimetry (ITC) binding; conditions: 30° C., pH 7.5
T1 construct: The human PDHK2 (12-407) was produced in E. coli; His-tag (cleaved yes); made in house; host or cells: E. coli
How it was run: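 Untagged PDHK2 (12-407) from E. coli at 50 μM titrated into 5 μM compound at 30° C in pH 7.5 HEPES/KCl/MgCl2/phosphate buffer, ≤1% DMSO. One-site fit gave KA, ΔH^obs and N after heat-of-dilution correction; protein concentration referenced to a standard inhibitor and compound concentration adjusted to 1:1 stoichiometry.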

[2] = test system: PDH-Elalpha (pSer300); assay: Cellular immunofluorescence assay in HEK293T cells; assay type: cell-based; conditions: Homo sapiens, HEK-293T, 5 hours incubation, anti-PDH-E1alpha pSer300 immunofluorescence, read-out: IC50 (cell data)
How it was run: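 HEK293T cells were exposed to compound for 5 hours, then fixed, permeabilised and immunostained for PDH-Elalpha pSer300 with Hoechst counterstain, read by laser scanning cytometry. Percent effect was normalized to a pharmacological inhibitor control and fitted to dose-response curves.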

[3] = molecular target: T2, PDHK2 (Homo sapiens, UniProt Q15119); assay: Biochemical activity testing of PDHK2: PDC inactivation assay; conditions: human rec PDHK2, PDC from porcine heart, ATP 5 μM; read-out: IC50 PDHK2 (enzyme assay)
T2 construct: purchased Carna Bioscience
How it was run: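 Human recombinant PDHK2 (137 nM final) preincubated 30 min at RT with porcine heart PDC (20 mU/ml) and compound in pH 7.0 phosphate buffer, then phosphorylated with 5 μM ATP for 30 min at 37 °C. Residual PDC activity read as NADH fluorescence increase (Ex 340/Em 450) over 45 min; inhibitor-free reaction as full value, 3 mM DCA as zero, IC50 derived.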

Row | SMILES | Kd [1] [nM] | IC50 [2] [nM] | IC50 [3] [nM]
1 | C[C@@](O)(C(=O)N1CCC(c2ccnn2-c2ccc(Cl)c(Cl)c2)CC1)C(F)(F)F [Compound A101, (R)-1-{4-[2-(3,4-Dichloro-phenyl)-2H-pyrazol-3-yl]-piperidin-1-yl}-3,3,3-trifluoro-2-hydroxy-2-methyl-propan-1-one] | < 300 | 300 to 3000 | 300 to 3000
2 | C[C@@](O)(C(=O)N1CCC(c2ccn(-c3ccc(C(F)(F)F)cn3)n2)CC1)C(F)(F)F [Compound A102, (R)-3,3,3-Trifluoro-2-hydroxy-2-methyl-1-{4-[1-(5-trifluoromethyl-pyridin-2-yl)-1 H-pyrazol-3-yl]-piperidin-1-yl}-propan-1-one] | 300 to 3000 | 3000 to 50000 | 3000 to 50000
3 | C[C@@H]1CN(C(=O)[C@@](C)(O)C(F)(F)F)CC[C@@H]1c1ccnn1-c1ccccc1 [Compound A106, (R)-3,3,3-Trifluoro-2-hydroxy-2-methyl-1-[(3S,4S)-3-methyl-4-(2-phenyl-2H-pyrazol-3-yl)-piperidin-1-yl]-propan-1-one] | < 300 | < 300 | < 300
4 | C[C@@H]1CN(C(=O)[C@@](C)(O)C(F)(F)F)CC[C@@H]1c1ccnn1-c1ccc(F)cc1 [Compound A107, (R)-3,3,3-Trifluoro-1-{(3S,4S)-4-[2-(4-fluoro-phenyl)-2H-pyrazol-3-yl]-3-methyl-piperidin-1-yl}-2-hydroxy-2-methyl-propan-1-one] | < 300 | < 300 | < 300
5 | COc1ccc(-n2nccc2[C@H]2CCN(C(=O)[C@@](C)(O)C(F)(F)F)C[C@H]2C)cc1 [Compound A110, (R)-3,3,3-Trifluoro-1-{(3S,4S)-4-[2-(4-methoxy-phenyl)-2H-pyrazol-3-yl]-3-methyl-piperidin-1-yl}-2-hydroxy-2-methyl-propan-1-one] | < 300 | < 300 | < 300
6 | C[C@@H]1CN(C(=O)[C@@](C)(O)C(F)(F)F)CC[C@@H]1c1ccnn1-c1ccc(C#N)cc1 [Compound A111, 4-{5-[(3S,4S)-3-Methyl-1-((R)-3,3,3-trifluoro-2-hydroxy-2-methyl-propionyl)piperidin-4-yl]-pyrazol-1-yl}-benzonitrile] | < 300 | < 300 | < 300
7 | C[C@@](O)(C(=O)N1CCC(c2ccnn2-c2ccc(F)cn2)CC1)C(F)(F)F [Compound A112, (2R)-1-[4-[2-(5-Fluoro-2-pyridyl)-2H-pyrazol-3-yl]-1-piperidyl]-3,3,3-trifluoro-2-hydroxy-2-methyl-propan-1-one] | < 300 | 3000 to 50000 | 300 to 3000
8 | COc1ccc(-n2nccc2[C@H]2CCN(C(=O)[C@@](C)(O)C(F)(F)F)C[C@H]2C)cn1 [Compound A113, (R)-3,3,3-Trifluoro-1-{(3S,4S)-4-[2-(6-methoxy-pyridin-3-yl)-2H-pyrazol-3-yl]-3-methyl-piperidin-1-yl}-2-hydroxy-2-methyl-propan-1-one] | < 300 | < 300 | < 300
9 | Cc1cc(-n2nccc2C2CCN(C(=O)[C@@](C)(O)C(F)(F)F)CC2)no1 [Compound A115, (R)-3,3,3-Trifluoro-2-hydroxy-2-methyl-1-{4-[2-(5-methyl-isoxazol-3-yl)-2H-pyrazol-3-yl]-piperidin-1-yl}-propan-1-one] | < 300 | 3000 to 50000 | 300 to 3000
10 | C[C@@](O)(C(=O)N1CCC(c2ccnn2C2CCOCC2)CC1)C(F)(F)F [Compound A116, (R)-3,3,3-Trifluoro-2-hydroxy-2-methyl-1-{4-[2-(tetrahydro-pyran-4-yl)-2H-pyrazol-3-yl]-piperidin-1-yl}-propan-1-one] | 300 to 3000 | 3000 to 50000 | 300 to 3000
11 | C[C@@](O)(C(=O)N1CCC(c2ccnn2-c2nc3ccccc3s2)CC1)C(F)(F)F [Compound A117, (R)-1-[4-(2-Benzothiazol-2-yl-2H-pyrazol-3-yl)-piperidin-1-yl]-3,3,3-trifluoro-2-hydroxy-2-methyl-propan-1-one] | < 300 | 3000 to 50000 | 300 to 3000
